Results published in patent US10889609B2, “Mannitol-based amphipathic compound and use thereof” (Industry-University Cooperation Foundation Hanyang …, priority 2015, dated 2021).
Where “and” joins values, the source holds several entries; their conditions need not be identical. Equal entries are not always repeated.

Key:
[1] = target: T1, boron transporter (Bor1) (Arabidopsis thaliana, UniProt Q8VYR7); experiment: Structural stability and extraction of Bor1 by heat fluorescence size exclusion chromatography (hFSEC)
T1 construct: made in house; host or cells: Saccharomyces cerevisiae FGY217
T1 sequence (Q8VYR7 whole entry): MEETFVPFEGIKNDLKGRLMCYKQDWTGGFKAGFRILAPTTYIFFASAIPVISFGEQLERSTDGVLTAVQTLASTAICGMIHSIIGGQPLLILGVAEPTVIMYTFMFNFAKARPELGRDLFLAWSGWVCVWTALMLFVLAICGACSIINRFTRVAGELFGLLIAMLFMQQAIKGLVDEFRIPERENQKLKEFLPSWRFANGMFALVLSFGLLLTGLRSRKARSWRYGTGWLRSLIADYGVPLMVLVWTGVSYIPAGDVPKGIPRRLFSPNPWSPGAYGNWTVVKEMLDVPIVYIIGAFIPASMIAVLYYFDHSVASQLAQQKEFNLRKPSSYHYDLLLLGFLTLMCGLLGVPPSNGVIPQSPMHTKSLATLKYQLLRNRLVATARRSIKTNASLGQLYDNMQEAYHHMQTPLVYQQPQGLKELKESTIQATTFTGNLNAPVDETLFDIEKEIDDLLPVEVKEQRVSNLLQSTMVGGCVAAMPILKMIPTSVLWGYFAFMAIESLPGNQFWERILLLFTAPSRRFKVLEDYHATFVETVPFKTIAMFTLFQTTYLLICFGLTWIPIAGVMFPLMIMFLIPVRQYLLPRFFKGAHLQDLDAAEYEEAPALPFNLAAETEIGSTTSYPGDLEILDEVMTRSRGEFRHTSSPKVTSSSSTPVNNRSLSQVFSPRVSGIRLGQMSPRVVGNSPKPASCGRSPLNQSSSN
Procedure: An experiment for measuring the structural stability of a boron transporter (Bor1) by the MNAs was performed. The structural stability of Bor1 was measured using heat fluorescence size exclusion chromatography (hFSEC), and the concentrations of the MNAs and DDM were CMC plus 0.04% by weight. Specifically, Bor1 of Arabidopsis thaliana was expressed in Saccharomyces cerevisiae FGY217 cells as a fusion protein having a C-terminal GFP-His tag. The cells were grown in a -URA medium supplemented with 0.1% glucose. Expression of proteins was induced by adding 2% galactose, and the cells were then cultured at 20° C. for 18 hours. Here, the cell culture was carried out according to the method described in the article by D. Drew et al. (Nat. Protoc. 2008, 3, 784-798.). The cells were collected to prepare membranes, and the cell collection was carried out according to the method described in the article by J. Leung et al. (Protein Expr. Purif. 2010, 72, 139-146.). The membranes including the Bor1-GFP fusion protein were diluted with phosphate-buffered saline (PBS, pH 7.4) until the final concentration of the total proteins reached 2.8 mg/mL. In this case, 1% by weight of DDM or 1% by weight of MNA (MNA-1, MNA-2, MNA-3, MNA-4, MNA-5, MNA-6, or MNA-7) was added to the PBS. Samples were incubated for an hour while shaking at 4° C., and insoluble materials were then removed by centrifugation at 14,000 g and 4° C. for an hour. The supernatant including the dissolved protein samples was heated at 40° C. for 10 minutes, and the strongly aggregated proteins were removed by centrifugation at 14,000 g and 4° C. for 10 minutes. 200 μL of the supernatant of the samples was injected into a Superose 6 10/300 column equilibrated with 20 mM Tris (pH 7.5), 150 mM NaCl, and 0.03% DDM. Each of elution fractions was collected in 200 μL fractions at a retention volume of 6.4 mL (e.g., 6.4 mL after elusion) in a clear bottom 96-well plate. The GFP fluorescence of each of the fractions was measured at an excitation wavelength of 470 nm and an emission wavelength of 512 nm.

[2] = target: T2, human β2 adrenergic receptor (β2AR) (Homo sapiens, UniProt P07550); experiment: mBBr-β2AR bimane spectra at detergent concentration below CMC; assay type: biochemical; conditions: detergent diluted to a fiftieth of its CMC, compared to DDM, FIG. 21
T2 construct: made in house
T2 sequence (P07550 whole entry): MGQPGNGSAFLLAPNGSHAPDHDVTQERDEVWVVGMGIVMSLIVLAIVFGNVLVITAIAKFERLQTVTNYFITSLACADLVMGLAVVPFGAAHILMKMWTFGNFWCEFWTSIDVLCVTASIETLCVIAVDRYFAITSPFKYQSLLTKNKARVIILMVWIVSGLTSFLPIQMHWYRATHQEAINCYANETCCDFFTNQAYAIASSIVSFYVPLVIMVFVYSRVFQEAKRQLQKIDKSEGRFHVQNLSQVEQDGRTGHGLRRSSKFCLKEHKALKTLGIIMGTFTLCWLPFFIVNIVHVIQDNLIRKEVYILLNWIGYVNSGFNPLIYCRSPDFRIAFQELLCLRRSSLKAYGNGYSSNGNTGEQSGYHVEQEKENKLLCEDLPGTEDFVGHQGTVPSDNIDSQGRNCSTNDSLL
Procedure: Experiments for comparing the structural changes of the β2AR protein by the MNAs and DDM at a concentration below CMCs of the amphipathic molecules were performed.
Specifically, 0.5 μL of a non-ligand mBBr-labeled receptor dissolved at 50 μNI in a 20×CMC concentration of MNA-5, MNA-6, or MNA-7 was diluted with 500 μL of an NH buffer (20 mM HEPES pH 7.5, and 100 mM NaCl). The proteins were cultured for 30 minutes, and the bimane spectra thereof were measured. The receptor dissolved in 0.1% DDM was diluted with the NH buffer, and used as the control. Data was presented as an average of three separate experiments performed in triplicate.

[3] = target: T2, human β2 adrenergic receptor (β2AR); experiment: Bimane fluorescence spectra of mBBr-β2AR with ISO or ISO plus G-protein; assay type: biochemical; conditions: combination of ISO and G-protein, FIG. 20
Procedure: Experiments for measuring the structural stabilities of a human β2 adrenergic receptor (β2AR), a G-protein-coupled receptor (GPCR), in the MNAs were performed.
Experiments for measuring the structural changes and structural stabilities of mBBr-β2AR by the MNAs (MNA-5, MNA-6, MNA-7) and DDM according to the presence or absence of a full agonist (isopreoterenol (ISO)) or a combination of ISO and G-protein were performed.
Specifically, β2AR dissolved in 0.1% DDM was purified according to the method disclosed in the article by D. M. Rosenbaum et al. (Science 2007, 318, 1266-1273) and then concentrated to a concentration of approximately 1 mg/mL. […] The mBBr-labeled β2AR was cultured for 30 minutes, and the mBBr spectra thereof were measured and compared to the spectra of the mBBr-labeled receptor dissolved in 0.1% DDM. The fluorescence of the mBBr-labeled β2AR was measured at 370 nm and thus determined by emission from 430 to 510 nm at 1-nm increments with 1 nm s^−1 integration using a Spex FluoroMax-3 spectrofluorometer (Jobin Yvon Inc.) which was run in a photon counting mode through a 4-nm emission bandwidth pass. mBBr dissolved in DDM was used as the positive control. […]

[4] = Hydrodynamic radius and size distribution of micelles by dynamic light scattering (DLS); assay type: physicochemical
Description: A method of measuring the radius of the micelle is not particularly limited, but the methods widely known in the related art may be used. For example, the radius of the micelle may be measured using a dynamic light scattering (DLS) experiment.
(§1) To determine characteristics of the MNAs of Preparative Example 1 to 10 synthesized according to the synthesis method of Example 1, the molecular weights (M.W.) and critical micellar concentrations (CMCs) of the MNAs and the hydrodynamic radii (Rh) of the formed micelles were measured.
(§2) Specifically, the critical micellar concentration (CMC) was measured using a hydrophobic fluorescence stain (diphenylhexatriene (DPH)), and the hydrodynamic radii (Rh) of the micelles formed by each of the preparations were measured by a dynamic light scattering (DLS) experiment. The measured results were compared to those of DDM that is a conventional amphipathic molecule (a detergent), and are listed in Table 1.
Meanwhile, the size distributions of the micelles formed by the MNAs were measured using DLS, and the measurement results are shown in FIG. 17. The MNAs were used at a content of 1.0% by weight.

[5] = Critical micellar concentration (CMC) by hydrophobic fluorescence stain diphenylhexatriene (DPH); assay type: physicochemical; conditions: aqueous solution
Description: A method of measuring the CMC is not particularly limited, but the methods widely known in the related art may be used. For example, the CMC may be measured by a fluorescence detection method using diphenylhexatriene (DPH).
as §1, §2

Bor1 extraction efficiency ([1]; 1% by weight detergent, membranes with Bor1-GFP): 60% | level of Bor1 protein aggregation after heat treatment ([1]; hFSEC, 40° C. for 10 minutes, FIG. 18): lower level of Bor1 aggregation than DDM | stability of β2AR [2]: secured for a prolonged period of time | Rh (nm), hydrodynamic radius of micelles [4]: 3.0 nm and 3.0 ± 0.01 nm | CMC [5]: ~0.004 mM
SMILES: CCCCCCCCCCCCO[C@H]([C@@H](OCCCCCCCCCCCC)[C@H](CO[C@@H]1OC(CO)[C@@H](O)C(O)C1O)O[C@@H]1OC(CO)[C@@H](O)C(O)C1O)[C@H](CO[C@@H]1OC(CO)[C@@H](O)C(O)C1O)O[C@@H]1OC(CO)[C@@H](O)C(O)C1O (stereo partly drawn) [MNA-5]
bimane fluorescence spectra of mBBr-β2AR [3]: slightly higher fluorescence intensity than DDM
